What was measured:
[1] = system: ischemia-reperfusion-induced ventricular arrhythmia in rats; test: Effect on the ischemia-reperfusion-induced ventricular arrhythmia in rats; type: in vivo, rat; settings: 3, 10, and 20 mg/kg given orally
Procedure: Male Sprague-Dawley rats, 9 to 10 week old, were orally given the compounds or tap water at a volume of 5 ml/kg. After one hour, the animals were anesthetized with sodium pentobarbital (50 mg/kg, by intraperitoneal injection), and they were subjected to thoractomy under artificial respiration, and the left anterior descending coronary artery was occluded for five minutes. The incidences of ventricular tachycardia, ventricular fibrilation and cardiac arrest for ten minutes after reperfusion of the blood were calculated.

[2] = system: caffeine-induced contraction of rabbit aorta strip depending on intracellular Ca^++; test: Intracellular Ca++ antagonism: inhibition of caffeine-induced contraction of aorta strip in Ca-free/EGTA solution; settings: Oryctolagus cuniculus, caffeine 20 mM, Ca++ 0 mM, EGTA 5 mM, read-out: Inhibitory percent (caffeine contraction); for inhibition at 10 µM: compound 10^-5 M
Procedure: A spiral strip of aorta of a rabbit (2 to 3 mm width, aobut 3 cm length) was allowed to equilibrate by hanging under 2 g force in a Krebs-Henseleitsolution. The solution was saturated with a mixture gas of 97% O2 -3% CO2, which was warmed to 37° C. The strip was moved into another Krebs-Henseleit solution containing Ca^++ OmM and EGTA 5 mM. Five minutes later, caffeine (20 mM) was added to the solution. The resulting contraction of the strip was made as the index of the contraction depending on intracellular Ca^++.

[3] = Acute toxicity (oral, 7 days observation); settings: rat, in vivo, male rats, five animals/group, seven days
Text: Male Wister rats aged five weeks (five animals/group) were orally given the test compounds (Example No. 1, 14, 15 and 18) suspended in a 5% solution of gum arabic. Each animal so treated was observed over a period of seven days.

[4] = system: acute renal failure in rats; test: Effect on acute renal failure in rats (plasma urea nitrogen, BUN); type: in vivo, rat; settings: 1, 3 and 10 mg/kg given orally
Procedure: Male sprague-Dawley rats, 6 week old, were orally given the compunds or tap water at a volume of 5 ml/kg. After one hour, the animals were anesthetized with sodium pentobarbital. The animals were subjected to laparotomy, and the left renal artery was clamped completely for one hour. The clamp was undone, and the incision was closed. The animals were again given orally the compounds or tap water 20 hours later. Further four hours later, the animals were again anesthetized, and the blood was obtained from the abdominal aorta. The plasma was separated for measurement of urea nitrogen (BUN).

intracellular Ca^++ = settings: (2) Ca++ liberated from intracellular store; (3) influx through receptor-operated channel; cited from earlier work
[5] = cited from earlier work
[6] = in vivo; cited from earlier work

## O=C1Nc2cc3c(cc2OC1CCCN1CCN(c2ccc(F)cc2)CC1)CCCC3 (stereo not shown) [Example 1, 2-{3-[4-(4-fluorophenyl)-1-piperazinyl]propyl}-6,7,8,9-tetrahydro-2H-naphtho[2,3-b][1,4]oxazin-3(4H)-one]
[1]
  incidences of cardiac functional abnormalities: inhibited the incidences of cardiac functional abnormalities in a dose-dependent manner
[2]
  inhibition at 10 µM: 87%
[2]; compound 10^-6 M
  inhibition at 1 µM: 60%
[3]
  LD50 at 168 h: ≥ 300 mg/kg
[4]
  increase in BUN: inhibited the increase in BUN

## NCCCCCCNS(=O)(=O)c1cccc2c(Cl)cccc12 [Example W-7]
Intracellular Ca^++
  action on intracellular Ca++: weak in action

## CCN(CC)CCCCCCCCOC(=O)c1cc(OC)c(OC)c(OC)c1 [TMB-8]
[2]
  inhibition at 10 µM: 48%
Intracellular Ca^++
  action on intracellular Ca++: weak in action
[5]
  antihypertensive action in vivo: do not display antihypertensive action in vivo

## COC(=O)C1=C(C)NC(C)=C(C(=O)OC)C1c1ccccc1[N+](=O)[O-] [nifedipine]
Intracellular Ca^++
  action on intracellular Ca++: hardly acts on (2) and (3)

## COc1cc2nc(N3CCN(C(=O)c4ccco4)CC3)nc(N)c2cc1OC [prazosin]
[6]
  side effects: orthostatic hypotension often observed

## CN1CCN(CCCN2c3ccccc3Sc3ccc(C(F)(F)F)cc32)CC1 [trifluoperazine]
Intracellular Ca^++
  action on intracellular Ca++: showing antagonism against intracellular Ca^++
[6]
  side effects: side effects e.g. on the central nervous system

Reference: patent publication US4789675A, “1,4-benzoxazine derivatives and pharmaceutical use” (priority 1986, dated 1988)
